Reference: patent US7902373B2 (Pfizer Inc, priority 2006, dated 2011)

Each molecule was assayed against human recombinant H-PGDS (Homo sapiens, UniProt O60760) (assay: Fluorescence intensity h-PGDS TBA enzyme assay). Details: Examples up to 622 (and 3a, 3b).
Assay type: biochemical

human recombinant H-PGDS, sequence (O60760 whole entry): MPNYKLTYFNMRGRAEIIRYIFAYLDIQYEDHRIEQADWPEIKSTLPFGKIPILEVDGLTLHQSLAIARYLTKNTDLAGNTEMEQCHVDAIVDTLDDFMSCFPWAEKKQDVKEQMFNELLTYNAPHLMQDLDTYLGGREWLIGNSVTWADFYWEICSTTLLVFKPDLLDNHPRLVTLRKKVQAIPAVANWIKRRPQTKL

Going from `O=C(NC1CCN(c2ccc(C(=O)c3ccccn3)cn2)CC1)c1ccc(-c2cccc(F)c2)nc1` [Example 149, 6-(3-Fluorophenyl)-N-{1-[5-(pyridin-2-ylcarbonyl)pyridin-2-yl]piperidin-4-yl}nicotinamide] to `O=C(NC1CCN(c2ncccc2C(=O)NCc2ccccc2)CC1)c1ccc(-c2cccc(F)c2)nc1` [Example 152, N-Benzyl-2-[4-({[6-(3-fluorophenyl)pyridin-3-yl]carbonyl}amino)piperidin-1-yl]nicotinamide], the IC50 rises from 1.82 nM to 3.35 nM (1.8-fold). The first is the more potent here.

First: COC(=O)c1cc(C)nc(N2CCC(NC(=O)c3ccc(-c4cccc(F)c4)nc3)CC2)n1 [Example 150, Methyl 2-[4-({[6-(3-fluorophenyl)pyridin-3-yl]carbonyl}amino)piperidin-1-yl]-6-methylpyrimidine-4-carboxylate]
Second: CC(C)NC(=O)c1ccc(N2CCC(NC(=O)c3ccc(-c4cccc(F)c4)nc3)CC2)nn1 [Example 157, 6-[4-({[6-(3-Fluorophenyl)pyridin-3-yl]carbonyl}amino)piperidin-1-yl]-N-isopropylpyridazine-3-carboxamide]
The IC50 of the first is 2.7-fold higher: 1.8 nM for the first, 0.678 nM for the second. The second is the more potent here.

Compared with `Nc1cc(N2CCC(NC(=O)c3ccc(-c4cccc(F)c4)nc3)CC2)ncn1` [Example 151, N-[1-(6-Aminopyrmidin-4-yl)piperidin-4-yl]-6-(3-fluorophenyl)nicotinamide], `CC(C)c1nccnc1N1CCC(NC(=O)c2ccc(-c3cccc(F)c3)nc2)CC1` [Example 155, 6-(3-Fluorophenyl)-N-[1-(3-isopropylpyrazin-2-yl)piperidin-4-yl]nicotinamide] is 4.4-fold higher in IC50: 0.519 nM for the first, 2.3 nM for the second. The first is the more potent here.

`O=C(NC1CCN(c2nc3ccccc3s2)CC1)c1ccc(-c2cccc(F)c2)nc1` [Example 153, N-[1-(1,3-Benzothiazol-2-yl)piperidin-4-yl]-6-(3-fluorophenyl)nicotinamide] and `O=C(NC1CCN(c2nc3ccccc3o2)CC1)c1ccc(-c2cccc(F)c2)nc1` [Example 158, N-[1-(1,3-Benzoxazol-2-yl)piperidin-4-yl]-6-(3-fluorophenyl)nicotinamide] are within 1.5-fold of each other in IC50: 1.89 nM for the first, 1.58 nM for the second.

Going from `CCc1cn2nc(N3CCC(NC(=O)c4ccc(-c5cccc(F)c5)nc4)CC3)ccc2n1` [Example 154, N-[1-(2-Ethylimidazo[1,2-b]pyridazin-6-yl)piperidin-4-yl]-6-(3-fluorophenyl)nicotinamide] to `Cc1cc(NC(=O)c2ccc(N3CCC(NC(=O)c4ccc(-c5cccc(F)c5)nc4)CC3)nn2)n(C)n1` [Example 160, N-(1,3-Dimethyl-1H-pyrazol-5-yl)-6-[4-({[6-(3-fluorophenyl)pyridin-3-yl]carbonyl}amino)piperidin-1-yl]pyridazine-3-carboxamide], the IC50 falls from 0.96 nM to 0.483 nM (2-fold).

Going from `CC[C@@H](C)c1nccnc1N1CCC(NC(=O)c2ccc(-c3cccc(F)c3)nc2)CC1` [Example 156, 6-(3-Fluorophenyl)-N-(1-{3-[(1R)-1-methylpropyl]pyrazin-2-yl}piperidin-4-yl)nicotinamide] to `CC(C)CN(C)C(=O)c1ccc(N2CCC(NC(=O)c3ccc(-c4cccc(F)c4)nc3)CC2)nn1` [Example 159, 6-[4-({[6-(3-Fluorophenyl)pyridin-3-yl]carbonyl}amino)piperidin-1-yl]-N-isobutyl-N-methylpyridazine-3-carboxamide], the IC50 falls from 3.15 nM to 1.59 nM (2-fold).

Going from `Cn1c(-c2cccc(C#N)c2)nc2c(N3CCC(NC(=O)c4ccc(-c5cccc(F)c5)nc4)CC3)ncnc21` [Example 161, N-{1-[8-(3-Cyanophenyl)-9-methyl-9H-purin-6-yl]piperidin-4-yl}-6-(3-fluorophenyl)nicotinamide] to `Cc1cnc(Cn2cnc3c(N4CCC(NC(=O)c5ccc(-c6cccc(F)c6)nc5)CC4)ncnc32)cn1` [Example 162, 6-(3-Fluorophenyl)-N-(1-{9-[(5-methylpyrazin-2-yl)methyl]-9H-purin-6-yl}piperidin-4-yl)nicotinamide], the IC50 falls from 3.85 nM to 1.1 nM (3.5-fold). The second is the more potent here.
